Experimental data reported in patent US8703784B2, “Substituted pyrazolo[1,5-a]pyrido[3.2-e]pyrimidin-6-one inhibitors of mammalian target of rapamycin” (Merck Sharp & Dohme Corp., priority 2010, dated 2014).

These compounds were tested against mTOR enzyme (Homo sapiens, UniProt P42345) (assay: mTOR Kinase Assay). Conditions: 5 μM ATP, 0.1 μM GSTS6K substrate.
Assay type: biochemical
Experimental: The mTOR assay buffer contains 10 mM hepes (pH 7.4), 50 mM NaCl, 100 μg/ml BSA, 50 mM B-glycerophosphate, 10 mM MnCl2 and 0.5 mM DTT. 20 ng of mTOR enzyme is preincubated with the compound for 10 minutes. 5 μM ATP and 0.1 μM GSTS6K is added. The reaction is incubated for one hour at 30° C. Anti phospho p70S6K (about 1.7 ng/well) and anti GSTXL665 (1:1 Ratio with the substrate GSTS6K) are added after incubating. The plates are read at least 2 hours after adding the anti phospho p70S6K and the anti GSTXL665.
Dose-response curves were plotted from inhibition data generated, each in duplicate, from 8 point serial dilutions of inhibitory compounds. Concentration of compound was plotted against % kinase activity, calculated by CPM of treated samples divided by CPM of untreated samples. To generate IC50 values, the dose-response curves were then fitted to a standard sigmoidal curve and IC50 values were derived by nonlinear regression analysis.

Compound	IC50
O=C1CCNc2c1c(C1CC3CCC(C1)N3C(=O)c1nnc[nH]1)nc1c(-c3ccc(-c4ccccc4)nc3)cnn21 (stereo not drawn) [Example 1, 5-(8-(4H-1,2,4-triazole-3-carbonyl)-8-azabicyclo[3.2.1]octan-3-yl)-3-(6-phenylpyridin-3-yl)-8,9-dihydropyrazolo[1,5-a]pyrido[3,2-e]pyrimidin-6(7H)-one]	< 10 nM
O=C(c1nnc[nH]1)N1C2CCC1CC(c1nc3c(-c4ccc(-c5ccccc5)nc4)cnn3c3[nH]ccc(=O)c13)C2 (stereo not drawn) [Example 2, 5-(8-(4H-1,2,4-triazole-3-carbonyl)-8-azabicyclo[3.2.1]octan-3-yl)-3-(6-phenylpyridin-3-yl)pyrazolo[1,5-a]pyrido[3,2-e]pyrimidin-6(9H)-one]	< 10 nM
Cn1ccc(-c2ccc(-c3cnn4c5c(c(C6CC7CCC(C6)N7C(=O)c6nnc[nH]6)nc34)C(=O)CCN5)cn2)n1 (stereo not drawn) [Example 4]	< 10 nM
Cn1ccc(-c2ccc(-c3cnn4c5c(c(C6CC7CCC(C6)N7C(=O)C(C)(CO)CO)nc34)C(=O)CCN5)cn2)n1 (stereo not drawn) [Example 5]	< 10 nM
COc1ccc(-c2ccc(-c3cnn4c5c(c(C6CC7CCC(C6)N7C(=O)CO)nc34)C(=O)CCN5)cn2)cc1F (stereo not drawn) [Example 6]	< 10 nM
COc1ccc(-c2ccc(-c3cnn4c5c(c(C6CC7CCC(C6)N7C(=O)C(C)(CO)CO)nc34)C(=O)CCN5)cn2)cc1F (stereo not drawn) [Example 8]	< 10 nM
O=C1CCNc2c1c(C1CC3CCC(C1)N3C(=O)c1nnc[nH]1)nc1c(-c3ccc(-c4ccccn4)nc3)cnn21 (stereo not drawn) [Example 12]	< 10 nM
O=C1CCNc2c1c(C1CCN(C(=O)c3nnc[nH]3)CC1)nc1c(-c3ccc(-c4ccccc4)nc3)cnn21 [Example 15, 5-(1-(4H-1,2,4-triazole-3-carbonyl)piperidin-4-yl)-3-(6-phenylpyridin-3-yl)-8,9-dihydropyrazolo[1,5-a]pyrido[3,2-e]pyrimidin-6(7H)-one]	< 10 nM
O=C1CCNc2c1c(C1CCN(C(=O)CO)CC1)nc1c(-c3ccc(-c4ccccc4)nc3)cnn21 [Example 16]	< 10 nM
C[C@@H](O)C(=O)N1CCC(c2nc3c(-c4ccc(-c5ccccc5)nc4)cnn3c3c2C(=O)CCN3)CC1 [Example 17]	< 10 nM
CC(CO)(CO)C(=O)N1CCC(c2nc3c(-c4ccc(-c5ccccc5)nc4)cnn3c3c2C(=O)CCN3)CC1 [Example 18]	< 10 nM
O=C1CCNc2c1c(N1CCOCC1)nc1c(-c3cnc4ccccc4c3)cnn21 [Example 19, 5-morpholino-3-(quinolin-3-yl)-8,9-dihydropyrazolo[1,5-a]pyrido[3,2-e]pyrimidin-6(7H)-one]	10 to 100 nM
C[C@@H]1CN(c2nc3c(-c4ccc(-c5ccccc5)nc4)cnn3c3c2C(=O)CCN3)C[C@H](C)O1 [Example 20, 5-((2R,6S)-2,6-dimethylmorpholino)-3-(6-phenylpyridin-3-yl)-8,9-dihydropyrazolo[1,5-a]pyrido[3,2-e]pyrimidin-6(7H)-one]	10 to 100 nM
O=C1CCNc2c1c(N1CCS(=O)(=O)CC1)nc1c(-c3cnc4ccc(F)cc4c3)cnn21 [Example 21]	< 10 nM
O=C1CCNc2c1c(N1CCS(=O)(=O)CC1)nc1c(-c3ccc(-c4ccccc4)nc3)cnn21 [Example 22]	< 10 nM
O=C1CCNc2c1c(C1CCS(=O)(=O)CC1)nc1c(-c3ccc(-c4ccccc4)nc3)cnn21 [Example 23, 3-(6-phenylpyridin-3-yl)-5-(tetrahydro-1,1-dioxido-2H-thiopyran-4-yl)-8,9-dihydropyrazolo[1,5-a]pyrido[3,2-e]pyrimidin-6(7H)-one]	< 10 nM
O=C1CCNc2c1c(C1CCS(=O)(=O)CC1)nc1c(-c3cnc4ccccc4c3)cnn21 [Example 24, 3-(quinolin-3-yl)-5-(tetrahydro-1,1-dioxido-2H-thiopyran-4-yl)-8,9-dihydropyrazolo[1,5-a]pyrido[3,2-e]pyrimidin-6(7H)-one]	10 to 100 nM
COCCO[C@]1(C(=O)O)CC[C@@H](c2nc3c(-c4cnn(-c5ccccc5)c4)cnn3c3c2C(=O)CCN3)CC1 [Example 25, (1r,4r)-1-(2-methoxyethoxy)-4-(6-oxo-3-(1-phenyl-1H-pyrazol-4-yl)-6,7,8,9-tetrahydropyrazolo[1,5-a]pyrido[3,2-e]pyrimidin-5-yl)cyclohexanecarboxylic acid]	< 10 nM
O=C1CCNc2c1c(C1C[C@H]3COC[C@@H](C1)N3C(=O)c1nc[nH]n1)nc1c(-c3ccc(-c4ccccc4)nc3)cnn21 (stereo partly drawn) [Example 27, 5-((1R,5S)-9-(1H-1,2,4-triazole-3-carbonyl)-3-oxa-9-azabicyclo[3.3.1]nonan-7-yl)-3-(6-phenylpyridin-3-yl)-8,9-dihydropyrazolo[1,5-a]pyrido[3,2-e]pyrimidin-6(7H)-one]	< 10 nM
CC(NC1CCOCC1)c1nc2c(-c3cnc4ccc(F)cc4c3)cnn2c2c1C(=O)CCN2 (stereo not drawn) [Example 28, 3-(6-fluoroquinolin-3-yl)-5-(1-(tetrahydro-2H-pyran-4-ylamino)ethyl)-8,9-dihydropyrazolo[1,5-a]pyrido[3,2-e]pyrimidin-6(7H)-one]	> 100 nM
(1r,4r)-1-(2-methoxyethoxy)-4-(3-(6-(1-methyl-1H-pyrazol-3-yl)pyridin-3-yl)-6-oxo-6,7,8,9-tetrahydropyrazolo[1,5-a]pyrido[3,2-e]pyrimidin-5-yl)cyclohexanecarboxylic acid [Example 26]	< 10 nM
